Laboratory results as given in PMC10794144, “A novel antibiotic class targeting the lipopolysaccharide transporter” (Nature, 2024).
≈ marks a conversion by molar mass, not a printed value. Like-named read-outs stand apart in the source and are kept apart here.

System: A. baumannii
Experiment: microbe, parasite or virus in culture
Conditions: Acinetobacter baumannii, 100%
Procedure, shortened: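 Values come from CLSI-guided (M07, M100) broth microdilution in CAMHB. Endpoint: lowest concentration halting growth, judged by naked eye or by OD600 plateau.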

C[C@@H](O)[C@H]1C(=O)N2C(C(=O)O)=C(S[C@@H]3CN[C@H](C(=O)N(C)C)C3)[C@H](C)[C@H]12 [meropenem, reference compound]
MIC (read-out: MIC 100%, ROB08702, Study LGC284879): 8 µg/mL (≈ 20.9 µM) | MIC (read-out: MIC 100%, ROB08702, Study LGC285582): 32 µg/mL (≈ 83.4 µM) | MIC (read-out: MIC 100%, ROB08702, Study LGC286210): 32 µg/mL (≈ 83.4 µM) | MIC (read-out: MIC 100%, ROB08702, Study LGC293598): 32 µg/mL (≈ 83.4 µM) | MIC (read-out: MIC 100%, ROB08702, Study LGC294355): 16 µg/mL (≈ 41.7 µM) | MIC (read-out: MIC 100%, ROB08702, Study LGC295147): 16 µg/mL (≈ 41.7 µM) | MIC (read-out: MIC 100%, ROB08702, Study LGC296813): 16 µg/mL (≈ 41.7 µM) | MIC (read-out: MIC 100%, ROB08702, Study LGC299544): 32 µg/mL (≈ 83.4 µM) | MIC (read-out: MIC 100%, ROB08702, Study LGC301026): 16 µg/mL (≈ 41.7 µM) | MIC (read-out: MIC 100%, ROB08702, Study LGC308175): 32 µg/mL (≈ 83.4 µM) | MIC (read-out: MIC 100%, ROB08702, Study ROC003): 16 µg/mL (≈ 41.7 µM) | MIC (read-out: MIC 100%, ROB08702, Study ROC004): 32 µg/mL (≈ 83.4 µM) | MIC (read-out: MIC 100%, ROB08702, Study ROC005): 32 µg/mL (≈ 83.4 µM) | MIC (read-out: MIC 100%, ROB08702, Study ROC006): 64 µg/mL (≈ 167 µM) | MIC (read-out: MIC 100%, ROB08702, Study ROC007): 32 µg/mL (≈ 83.4 µM) | MIC (read-out: MIC 100%, ROB08702, Study ROC008): 16 µg/mL (≈ 41.7 µM) | MIC (read-out: MIC 100%, ROB08702, Study ROC009): 16 µg/mL (≈ 41.7 µM) | MIC (read-out: MIC 100%, ROB08702, Study ROC010): 32 µg/mL (≈ 83.4 µM) | MIC (read-out: MIC 100%, ROB08702, Study ROC012): 32 µg/mL (≈ 83.4 µM) | MIC (read-out: MIC 100%, ROB08702, Study ROC013): 32 µg/mL (≈ 83.4 µM) | MIC (read-out: MIC 100%, ROB08703, Study LGC277937): 64 µg/mL (≈ 167 µM) | MIC (read-out: MIC 100%, ROB08703, Study LGC279800): > 64 µg/mL | MIC (read-out: MIC 100%, ROB08703, Study LGC281440): 64 µg/mL (≈ 167 µM) | MIC (read-out: MIC 100%, ROB08703, Study LGC282160): 64 µg/mL (≈ 167 µM) | MIC (read-out: MIC 100%, ROB08703, Study LGC282623): 64 µg/mL (≈ 167 µM) | MIC (read-out: MIC 100%, ROB08703, Study LGC283932): > 64 µg/mL | MIC (read-out: MIC 100%, ROB08703, Study LGC284200): 64 µg/mL (≈ 167 µM) | MIC (read-out: MIC 100%, ROB08703, Study LGC284879): > 64 µg/mL | MIC (read-out: MIC 100%, ROB08703, Study LGC285582): > 64 µg/mL | MIC (read-out: MIC 100%, ROB08703, Study LGC286210): 64 µg/mL (≈ 167 µM) | MIC (read-out: MIC 100%, ROB08703, Study LGC293598): > 64 µg/mL | MIC (read-out: MIC 100%, ROB08703, Study LGC294355): 64 µg/mL (≈ 167 µM) | MIC (read-out: MIC 100%, ROB08703, Study LGC295147): 64 µg/mL (≈ 167 µM) | MIC (read-out: MIC 100%, ROB08703, Study LGC296813): 64 µg/mL (≈ 167 µM) | MIC (read-out: MIC 100%, ROB08703, Study LGC299544): > 64 µg/mL | MIC (read-out: MIC 100%, ROB08703, Study LGC301026): 64 µg/mL (≈ 167 µM) | MIC (read-out: MIC 100%, ROB08703, Study LGC308175): 64 µg/mL (≈ 167 µM) | MIC (read-out: MIC 100%, ROB08703, Study ROC003): 64 µg/mL (≈ 167 µM) | MIC (read-out: MIC 100%, ROB08703, Study ROC004): 64 µg/mL (≈ 167 µM) | MIC (read-out: MIC 100%, ROB08703, Study ROC005): > 64 µg/mL | MIC (read-out: MIC 100%, ROB08703, Study ROC006): 64 µg/mL (≈ 167 µM) | MIC (read-out: MIC 100%, ROB08703, Study ROC007): > 64 µg/mL | MIC (read-out: MIC 100%, ROB08703, Study ROC008): 64 µg/mL (≈ 167 µM) | MIC (read-out: MIC 100%, ROB08703, Study ROC009): 64 µg/mL (≈ 167 µM) | MIC (read-out: MIC 100%, ROB08703, Study ROC010): 64 µg/mL (≈ 167 µM) | MIC (read-out: MIC 100%, ROB08703, Study ROC012): 64 µg/mL (≈ 167 µM) | MIC (read-out: MIC 100%, ROB08703, Study ROC013): > 64 µg/mL | MIC (read-out: MIC 100%, ROB08704, Study LGC277937): 64 µg/mL (≈ 167 µM) | MIC (read-out: MIC 100%, ROB08704, Study LGC279800): 64 µg/mL (≈ 167 µM) | MIC (read-out: MIC 100%, ROB08704, Study LGC281440): 32 µg/mL (≈ 83.4 µM) | MIC (read-out: MIC 100%, ROB08704, Study LGC282160): 32 µg/mL (≈ 83.4 µM) | MIC (read-out: MIC 100%, ROB08704, Study LGC282623): 64 µg/mL (≈ 167 µM) | MIC (read-out: MIC 100%, ROB08704, Study LGC283932): 32 µg/mL (≈ 83.4 µM) | MIC (read-out: MIC 100%, ROB08704, Study LGC284200): 32 µg/mL (≈ 83.4 µM) | MIC (read-out: MIC 100%, ROB08704, Study LGC284879): 64 µg/mL (≈ 167 µM) | MIC (read-out: MIC 100%, ROB08704, Study LGC285582): 32 µg/mL (≈ 83.4 µM) | MIC (read-out: MIC 100%, ROB08704, Study LGC286210): 64 µg/mL (≈ 167 µM) | MIC (read-out: MIC 100%, ROB08704, Study LGC293598): 32 µg/mL (≈ 83.4 µM) | MIC (read-out: MIC 100%, ROB08704, Study LGC294355): 64 µg/mL (≈ 167 µM) | MIC (read-out: MIC 100%, ROB08704, Study LGC295147): 64 µg/mL (≈ 167 µM) | MIC (read-out: MIC 100%, ROB08704, Study LGC296813): 32 µg/mL (≈ 83.4 µM) | MIC (read-out: MIC 100%, ROB08704, Study LGC299544): 32 µg/mL (≈ 83.4 µM) | MIC (read-out: MIC 100%, ROB08704, Study LGC301026): 32 µg/mL (≈ 83.4 µM) | MIC (read-out: MIC 100%, ROB08704, Study LGC308175): 64 µg/mL (≈ 167 µM) | MIC (read-out: MIC 100%, ROB08704, Study ROC003): 64 µg/mL (≈ 167 µM) | MIC (read-out: MIC 100%, ROB08704, Study ROC004): 64 µg/mL (≈ 167 µM) | MIC (read-out: MIC 100%, ROB08704, Study ROC005): 64 µg/mL (≈ 167 µM) | MIC (read-out: MIC 100%, ROB08704, Study ROC006): 64 µg/mL (≈ 167 µM) | MIC (read-out: MIC 100%, ROB08704, Study ROC007): 64 µg/mL (≈ 167 µM) | MIC (read-out: MIC 100%, ROB08704, Study ROC008): 64 µg/mL (≈ 167 µM) | MIC (read-out: MIC 100%, ROB08704, Study ROC009): 32 µg/mL (≈ 83.4 µM) | MIC (read-out: MIC 100%, ROB08704, Study ROC010): 64 µg/mL (≈ 167 µM) | MIC (read-out: MIC 100%, ROB08704, Study ROC012): 32 µg/mL (≈ 83.4 µM) | MIC (read-out: MIC 100%, ROB08704, Study ROC013): 64 µg/mL (≈ 167 µM) | MIC (read-out: MIC 100%, ROB08705, Study LGC277937): 64 µg/mL (≈ 167 µM) | MIC (read-out: MIC 100%, ROB08705, Study LGC279800): 16 µg/mL (≈ 41.7 µM) | MIC (read-out: MIC 100%, ROB08705, Study LGC281440): 32 µg/mL (≈ 83.4 µM) | MIC (read-out: MIC 100%, ROB08705, Study LGC282160): 32 µg/mL (≈ 83.4 µM) | MIC (read-out: MIC 100%, ROB08705, Study LGC282623): 32 µg/mL (≈ 83.4 µM) | MIC (read-out: MIC 100%, ROB08705, Study LGC283932): 32 µg/mL (≈ 83.4 µM) | MIC (read-out: MIC 100%, ROB08705, Study LGC284200): 32 µg/mL (≈ 83.4 µM) | MIC (read-out: MIC 100%, ROB08705, Study LGC284879): 32 µg/mL (≈ 83.4 µM) | MIC (read-out: MIC 100%, ROB08705, Study LGC285582): 32 µg/mL (≈ 83.4 µM) | MIC (read-out: MIC 100%, ROB08705, Study LGC286210): 32 µg/mL (≈ 83.4 µM) | MIC (read-out: MIC 100%, ROB08705, Study LGC293598): 32 µg/mL (≈ 83.4 µM) | MIC (read-out: MIC 100%, ROB08705, Study LGC294355): 32 µg/mL (≈ 83.4 µM)
